In US20120309709A1, “Ion-Channel Regulator Compositions and Methods of Using Same” (priority 2007, published 2012):
Where “and” joins values, the source holds several entries; their conditions need not be identical. Equal entries are not always repeated. Where two headings read alike, the source gives them in different places.

Assays:
[1] = system: MMPs produced by synovial tissue in response to IL-1β; conditions: for activity of the MMPs, % of that measured in tissues not exposed to the regulator: IL-1β alone = 100%
[2] = system: cells in the synovial tissue; assay: Trypan blue exclusion test on synovial tissue; conditions: Examples 1-4
Protocol: Multiple samples of synovial tissue, each approximately 20 mg, were obtained from a person with osteoarthritis (grade IV, Kellgren-Lawrence scale).

[3] = Example 1, person, regulator 0.01 mg/mL
[4] = Example 1, person, regulator 0.05 mg/mL
[5] = Example 2, person, regulator 0.01 mg/mL
[6] = Example 2, person, regulator 0.05 mg/mL
[7] = Example 3, person, regulator 0.01 mg/mL
[8] = Example 3, person, regulator 0.05 mg/mL
[9] = Example 4, person, regulator 0.01 mg/mL
[10] = Example 4, person, regulator 0.05 mg/mL
[11] = Example 5, person, single regulator 0.1 mg/mL
[12] = Example 6, person, single regulator 0.1 mg/mL
[13] = Example 7, person, single regulator 0.1 mg/mL

SMILES | activity of the MMPs, % of that measured in tissues not exposed to the regulator [1, 3] | activity of the MMPs, % of that measured in tissues not exposed to the regulator [1, 4] | activity of the MMPs, % of that measured in tissues not exposed to the regulator [1, 5] | activity of the MMPs, % of that measured in tissues not exposed to the regulator [1, 6] | activity of the MMPs, % of that measured in tissues not exposed to the regulator [1, 7] | activity of the MMPs, % of that measured in tissues not exposed to the regulator [1, 8] | activity of the MMPs, % of that measured in tissues not exposed to the regulator [1, 9] | activity of the MMPs, % of that measured in tissues not exposed to the regulator [1, 10] | activity of the MMPs, % of that measured in tissues not exposed to the regulator [1, 11] | activity of the MMPs, % of that measured in tissues not exposed to the regulator [1, 12] | activity of the MMPs, % of that measured in tissues not exposed to the regulator [1, 13] | effect on blocking MMP activity of further increasing the concentration ([1]; Examples 1-4, concentration increased from 0.05 mg/mL up to 0.1 mg/mL, compared with level at 0.05 mg/mL) | concentration at which death of cells in the synovial tissue was observed [2]
COc1ccc([C@@H]2Sc3ccccc3N(CCN(C)C)C(=O)[C@@H]2OC(C)=O)cc1 [diltiazem] | 97% | 27.1% | 99% | 35.7% | 97% | 24.7% | 98.1% | 22.6% | 24.8% | 29.8% | 34.3% | no further effect | above 0.1 mg/mL
COc1ccc(CCN(C)CCCC(C#N)(c2ccc(OC)c(OC)c2)C(C)C)cc1OC (stereo not shown) [verapamil] | 38% | 18.9% | 37.2% | 21.5% | 37% | 23.2% | 35% | 13.6% and 13.1% | 16% | 21.9% | 17.4% |  | above 0.1 mg/mL
